{"source": "patent US5783179A", "about": "“C-reactive protein fragment with immunomodulatory activity” (Syntex (U.S.A.) Inc., priority 1991, dated 1998)", "tested_on": "T241 fibrosarcoma lung metastases", "assay": "Mouse T241 fibrosarcoma model: evaluation of lung metastases after amputation of the tumor-bearing foot", "format": "in vivo, male C57BL/6 mice", "settings": "Day 35, soluble CRP-peptide 1.25 μg per dose", "method": "The CRP-peptide was assayed for activity in the mouse T241 fibrosarcoma model, whereby the ability to block lung metastasis formation is measured.\nThe procedures have been described in detail previously (Deodhar, et al, Cancer Res 42:5084-5088, 1982). Suspensions of 5×10^5 viable T241 fibrosarcoma cells in 0.1 ml of Hanks's balanced salt solution were injected subcutaneously into the dorsum of one hind foot of ten male C57BL/6 mice (Jackson Laboratories, Bar Harbor, Me.) per experiment. Seventeen days after tumor implantation, the tumor-bearing foot was amputated below the knee. The mean tumor weight at this stage was 152 ±58 (S.E.M.) mg. The tumor weight was determined by subtracting the weight of an amputated normal foot from that of a tumor-bearing foot. Previous studies have shown that T241 fibrosarcoma starts seeding the lung parenchyma by Day 10 after foot tumor implantation; by Day 17, virtually all animals have lung macro- and/or micrometastases. The animals were then randomized into control and experimental groups, and appropriate therapy was started after amputation of the tumor-bearing foot.\nTreatments consisted of intravenous (orbital sinus) injections of liposomes containing CRP, liposomal CRP-peptide of Example 2, or liposomal CRP-peptide of Example 2 plus intraperitoneal injections of non-encapsulated soluble recombinant interleukin-2 (Cetus Corp., Emeryville, Calif.), or non-encapsulated interleukin-2 (IL-2) alone, whereas the control groups received either no treatment, liposomes containing buffer medium alone, or liposomes containing buffer medium plus non-encapsulated CRP peptide. […] On Day 35 of the experiment, all animals were killed, and the lungs were evaluated for number and size of metastases.\nTumor metastases could be clearly recognized as raised, hemorrhagic, opaque, and dense nodules, distinguishable from the smooth, glistening, spongy, and pink normal lung parenchyma. […] To obtain an approximate assessment of the total metastatic tumor burden in the lungs, the \"metastatic index\", reflecting both number and size of metastases, was calculated as follows. […]", "data": [{"substance": "H-IYLGGPFSPNVL-OH [Soluble CRP-peptide]", "values": [{"measurement": "No. of Metastatic Foci (+ SEM)", "setting": "MLV: 0.25 μg CRP or CRP-peptide i.v. 3x per week for 2 weeks", "result": "12.9 ± 2.9"}, {"measurement": "No. Animals with Lung Metastases", "setting": "MLV: 2.5 μmols lipid containing 0.25 μg CRP or CRP-peptide i.v. 3x per week for 2 weeks", "result": "10/10"}, {"measurement": "Metastatic Index (+ SEM)", "setting": "mean of group, MLV: 0.25 μg CRP or CRP-peptide i.v. 3x per week for 2 weeks", "result": "49.7 ± 10.1"}]}]}
